Laboratory results: patent US10533015B1, “Opioid receptor antagonist prodrugs” (Nirsum Laboratories, Inc., priority 2019, dated 2020)
Where two headings read alike, the source gives them in different places.

What was measured:
[1] = Plasma stability assay, rat plasma; format: in vitro ADME; details: 10 μM, 37° C.
Protocol: Plasma stability determination of the test compounds in rat, dog, cynomolgus monkey and human plasma is performed using HPLC-MS. For rat, incubations are carried out in 96-well polypropylene plates in 5 aliquots of 70 μL each (one for each time point). […] Five time points are analyzed (0, 15, 120, 480 and 1440 min). For dog, monkey and human, test compounds (2 μM, final solvent concentration 1%) were also incubated at 37° C. and analyzed at five time points (0, 10, 30, 60 and 120 min). All incubations are performed in duplicates. The samples are analyzed by HPLC-MS. The percentage of parent compound remaining after incubation in plasma is determined.

[2] = Polymorph screening of solid state drug substances; details: for Dry method and appearance: after stirring 50 °C 72 hours, dried solid; for XRPD results (Dried): dried solid after 50 °C 72 hours; for Visual observation 50° C. / Visual observation RT: target conc. 100 mg/ml
[3] = heating temp. 60 °C, obs. temp. 25 °C
[4] = heating temp. 40 °C, obs. temp. 40 °C
[5] = heating temp. 60 °C, obs. temp. 40 °C
[6] = Volumetric flask method, heating temp. 60 °C, obs. temp. 25 °C
[7] = section 'Solubility by volumetric flask method', heating temp. 40 °C, obs. temp. 40 °C

Compound: CCCCCCCCCCCCCCCCCCCC(=O)Oc1ccc2c3c1O[C@H]1C(=O)CC[C@@]4(O)C(C2)N(CC2CC2)CC[C@]314 [Compound 50, (4aS,7aR,12bS)-3-(cyclopropylmethyl)-4a-hydroxy-7-oxo-2,3,4,4a,5,6,7,7a-octahydro-1H-4,12-methanobenzofuro[3,2-e]isoquinolin-9-yl iconsanoate]
- % remaining at time point ([1]; 0 min): 100%
- % remaining at time point ([1]; 15 min): 114.5%
- % remaining at time point ([1]; 120 min): 102.7%
- % remaining at time point ([1]; 480 min): 83.3%
- % remaining at time point ([1]; 1440 min): 73.9%
- Approximate Solubility (mg/mL) in Excipient: Cottonseed oil [3]: <51 mg/mL
- Approximate Solubility (mg/mL) in Excipient: Sesame oil [3]: <52 mg/mL
- Equilibrium solubility (mg/mL) Water [4]: <0.001 mg/mL

Compound: CCCCCCCCCCCCCCC(=O)Oc1ccc2c3c1O[C@H]1C(=O)CC[C@@]4(O)C(C2)N(CC2CC2)CC[C@]314 [Compound 58, (4aS,7aR,12bS)-3-(cyclopropylmethyl)-4a-hydroxy-7-oxo-2,3,4,4a,5,6,7,7a-octahydro-1H-4,12-methanobenzofuro[3,2-e]-isoquinolin-9-yl pentadecanoate]
- % remaining at time point ([1]; 0 min): 100%
- % remaining at time point ([1]; 15 min): 37%
- % remaining at time point ([1]; 120 min): 20%
- % remaining at time point ([1]; 480 min): 2.9%
- % remaining at time point ([1]; 1440 min): 1.8%
- Approximate Solubility (mg/mL) in Excipient: Cottonseed oil [3]: 101.8 to 203.6 mg/mL
- Approximate Solubility (mg/mL) in Excipient: Sesame oil [3]: 99.4 to 198.8 mg/mL

Compound: C=C1CC[C@@]2(O)C3Cc4ccc(OCOC(=O)OCCCCCCCCCCCCCC)c5c4[C@@]2(CCN3CC2CC2)[C@H]1O5 [Compound 25, (((4aS,7aS,12bS)-3-(cyclopropylmethyl)-4a-hydroxy-7-methylene-2,3,4,4a,5,6,7,7a-octahydro-1H-4,12-methanobenzofuro[3,2-e]isoquinolin-9-yl)oxy)methyl tetradecyl carbonate]
- % remaining at time point ([1]; 0 min): 100%
- % remaining at time point ([1]; 15 min): 82.6%
- % remaining at time point ([1]; 120 min): 69.3%
- % remaining at time point ([1]; 480 min): 62.2%
- % remaining at time point ([1]; 1440 min): 51.7%
- Approximate Solubility (mg/mL) in Excipient: Cottonseed oil [3]: >414 mg/mL
- Equilibrium solubility (mg/mL) Water [4]: <0.001 mg/mL

Compound: Enalapril maleate salt [reference compound]
- % remaining at time point ([1]; 0 min): 100%
- % remaining at time point ([1]; 15 min): 44%
- % remaining at time point ([1]; 120 min): 2.9%
- % remaining at time point ([1]; 480 min): 8.2%
- % remaining at time point ([1]; 1440 min): 4.8%

Compound: C=C1CC[C@@]2(O)C3Cc4ccc(OC(=O)OCCCCCCCC)c5c4[C@@]2(CCN3CC2CC2)[C@H]1O5 [Compound 17, (4aS,7aS,12bS)-3-(cyclopropylmethyl)-4a-hydroxy-7-methylene-2,3,4,4a,5,6,7,7a-octahydro-1H-4,12-methanobenzofuro[3,2-e]isoquinolin-9-yl octyl carbonate]
- % remaining at time point ([1]; 0 min): 100%
- % remaining at time point ([1]; 15 min): 0%
- % remaining at time point ([1]; 120 min): 0%
- % remaining at time point ([1]; 480 min): 0%
- % remaining at time point ([1]; 1440 min): 0%

Compound: C=C1CC[C@@]2(O)C3Cc4ccc(OC(=O)OCCCCCCCCCCCCC)c5c4[C@@]2(CCN3CC2CC2)[C@H]1O5 [Compound 30, (4aS,7aS,12bS)-3-(cyclopropylmethyl)-4a-hydroxy-7-methylene-2,3,4,4a,5,6,7,7a-octahydro-1H-4,12-methanobenzofuro[3,2-e]isoquinolin-9-yl tridecyl carbonate]
- % remaining at time point ([1]; 0 min): 100%
- % remaining at time point ([1]; 15 min): 65.7%
- % remaining at time point ([1]; 120 min): 40.3%
- % remaining at time point ([1]; 480 min): 30.5%
- % remaining at time point ([1]; 1440 min): 22.2%
- Approximate Solubility (mg/mL) in Excipient: Cottonseed oil [3]: 252.5 to 404.06 mg/mL
- Approximate Solubility (mg/mL) in Excipient: Sesame oil [3]: 252.55 to 398.6 mg/mL
- Equilibrium solubility (mg/mL) Water [4]: <0.001 mg/mL

Compound: CCCCCCCCOC(=O)Oc1ccc2c3c1O[C@H]1C(=O)CC[C@@]4(O)C(C2)N(CC2CC2)CC[C@]314 [Compound 23, (4aS,7aR,12bS)-3-(cyclopropylmethyl)-4a-hydroxy-7-oxo-2,3,4,4a,5,6,7,7a-octahydro-1H-4,12-methanobenzofuro[3,2-e]isoquinolin-9-yl octyl carbonate]
- % remaining at time point ([1]; 0 min): 100%
- % remaining at time point ([1]; 15 min): 0%
- % remaining at time point ([1]; 120 min): 0%
- % remaining at time point ([1]; 480 min): 0%
- % remaining at time point ([1]; 1440 min): 0%

Compound: C=C1CC[C@@]2(O)C3Cc4ccc(OC(=O)CCCCCCCCCCCCCCCCCCC)c5c4[C@@]2(CCN3CC2CC2)[C@H]1O5 [Compound 16, (4aS,7aS,12bS)-3-(cyclopropylmethyl)-4a-hydroxy-7-methylene-2,3,4,4a,5,6,7,7a-octahydro-1H-4,12-methanobenzofuro[3,2-e]isoquinolin-9-yl icosanoate]
- Dry method and appearance ([2]; Acetone): Evaporation/white powder
- XRPD results (Dried) ([2]; Acetone): Pattern A
- Visual observation 50° C. ([2]; Acetone): Clear
- Visual observation RT ([2]; Acetone): Slurry
- Dry method and appearance ([2]; EtOAc): Evaporation/white powder
- XRPD results (Dried) ([2]; EtOAc): Pattern A
- Visual observation 50° C. ([2]; EtOAc): Clear
- Visual observation RT ([2]; EtOAc): Slurry
- Dry method and appearance ([2]; Heptane): Centrifugation/white powder
- XRPD results (Dried) ([2]; Heptane): Pattern A
- Visual observation 50° C. ([2]; Heptane): Slurry
- Visual observation RT ([2]; Heptane): Slurry
- Dry method and appearance ([2]; Isopropanol): Centrifugation/white powder
- XRPD results (Dried) ([2]; Isopropanol): Pattern A
- Visual observation 50° C. ([2]; Isopropanol): Slurry
- Visual observation RT ([2]; Isopropanol): Slurry
- Dry method and appearance ([2]; MTBE): Evaporation/white powder
- XRPD results (Dried) ([2]; MTBE): Pattern A
- Visual observation 50° C. ([2]; MTBE): Clear
- Visual observation RT ([2]; MTBE): Clear
- Approximate Solubility (mg/mL) in Excipient: Cottonseed oil [4]: 57 to 67 mg/mL
- Approximate Solubility (mg/mL) in Excipient: Cottonseed oil [5]: 201 to 403 mg/mL
- Approximate Solubility (mg/mL) in Excipient: Ethanol [4]: <25 mg/mL
- Approximate Solubility (mg/mL) in Excipient: Sesame oil [4]: 68 to 81 mg/mL
- Approximate Solubility (mg/mL) in Excipient: Sesame oil [5]: 202 to 404 mg/mL

Compound: CCCCCCCC/C=C/CCCCCCCC(=O)Oc1ccc2c3c1O[C@H]1C(=O)CC[C@@]4(O)C(C2)N(CC2CC2)CC[C@]314 [Compound 8, (4aS,7aR,12bS)-3-(cyclopropylmethyl)-4a-hydroxy-7-oxo-2,3,4,4a,5,6,7,7a-octahydro-1H-4,12-methanobenzofuro[3,2-e]isoquinolin-9-yl (E)-octadec-9-enoate]
- Approximate Solubility (mg/mL) in Excipient: Cottonseed oil (heating 60 °C, obs. 25 °C, initial failed batch due to non-optimized synthesis): <50 mg/mL
- Solubility by volumetric flask method: Sesame oil [6]: >399.8 mg/mL
- Equilibrium solubility (mg/mL) Water [7]: <0.001 mg/mL

Compound: C=C1CC[C@@]2(O)C3Cc4ccc(OCOC(=O)OCCCCCCCCCCC)c5c4[C@@]2(CCN3CC2CC2)[C@H]1O5 [Compound 5, (((4aS,7aS,12bS)-3-(cyclopropylmethyl)-4a-hydroxy-7-methylene-2,3,4,4a,5,6,7,7a-octahydro-1H-4,12-methanobenzofuro[3,2-e]isoquinolin-9-yl)oxy)methyl undecyl carbonate]
- Solubility by volumetric flask method: Cottonseed oil (Volumetric flask method, cottonseed oil, heating temp. 60 °C, obs. temp. 25 °C): >401.8 mg/mL
- Solubility by volumetric flask method: Sesame oil [6]: >400.6 mg/mL
- Equilibrium solubility (mg/mL) Water [7]: <0.001 mg/mL

Compound: CCCCCCCCCCCCCCCC(=O)OCOc1ccc2c3c1O[C@H]1C(=O)CC[C@@]4(O)C(C2)N(CC2CC2)CC[C@]314 [Compound 49, (((4aS,7aR,12bS)-3-(cyclopropylmethyl)-4a-hydroxy-7-oxo-2,3,4,4a,5,6,7,7a-octahydro-1H-4,12-methanobenzofuro[3,2-e]isoquinolin-9-yl)oxy)methyl hexadecanoate]
- Approximate Solubility (mg/mL) in Excipient: Cottonseed oil [3]: <50 mg/mL
- Approximate Solubility (mg/mL) in Excipient: Sesame oil [3]: <51 mg/mL

Compound: C=C1CC[C@@]2(O)C3Cc4ccc(OC(=O)CCCCCCCCCCC/C=C\CCCCCCCC)c5c4[C@@]2(CCN3CC2CC2)[C@H]1O5 [Compound 13, (4aS,7aS,12bS)-3-(cyclopropylmethyl)-4a-hydroxy-7-methylene-2,3,4,4a,5,6,7,7a-octahydro-1H-4,12-methanobenzofuro[3,2-e]isoquinolin-9-yl (Z)-docos-13-enoate]
- Approximate Solubility (mg/mL) in Excipient: Cottonseed oil [4]: >381 mg/mL
- Approximate Solubility (mg/mL) in Excipient: Cottonseed oil [3]: <50 mg/mL
- Approximate Solubility (mg/mL) in Excipient: Ethanol [4]: >214 mg/mL
- Approximate Solubility (mg/mL) in Excipient: Sesame oil [4]: >406 mg/mL
- Approximate Solubility (mg/mL) in Excipient: Sesame oil [3]: 91 to 121 mg/mL
